Patent EP4664463A1, “COMPUTER-IMPLEMENTED METHOD FOR OLFACTORY PROPERTY PREDICTION” (Givaudan SA, priority 2024, dated 2025)
“Also recorded” adds a separate entry of the source. Like-named read-outs stand apart in the source and are kept apart here. Marks after values point to notes of the source that are not given here.

Columns and labels:
[1] = target: T1, OR52E8 (Homo sapiens, UniProt Q6IFG1); assay: cell-based; assay type: cell-based; conditions: read-out: Potency EC50
T1 construct: expressed in transfected cells; host or cells: HEK293T stably expressing human RTP1S(V227I) and RTP2(L220R)
Excerpt: (§1) To create an expression plasmid, an OR coding sequence fused at the end of TM7 to the desired C-terminus sequence was synthesized by a DNA synthesis service provider (BioCat GmbH, Germany) and inserted into pcDNA3.1(+) (Invitrogen, MA, USA) downstream of the CMV promoter sequence (SEQ ID NO: 82) using BamHI and Notl restriction sites. All the synthetic OR nucleotide sequences described below in Examples 1-15 further contained at their N-terminus a nucleotide sequence encoding a signal peptide (mmLucy-FLAG-rho, SeQ ID NOs: 80, 81) and at the C-terminus the bgh terminator sequence (SEQ ID NO: 83). All the OR expression plasmids also contain a Kozak sequence (GCCACC) between the BamHI restriction site and the start codon of the signal peptide. These plasmids thus contain a constitutively expressed OR gene.

[2] = tested on: OR52E8; assay: cell-based; assay type: cell-based, human
Excerpt: as §1

[3] = target: T2, OR56A4 (Homo sapiens, UniProt Q8NGH8); assay: cell-based; assay type: cell-based
T2 construct: expressed in transfected cells; host or cells: HEK293T stably expressing human RTP1S(V227I) and RTP2(L220R)
T2 sequence (Q8NGH8 1-313): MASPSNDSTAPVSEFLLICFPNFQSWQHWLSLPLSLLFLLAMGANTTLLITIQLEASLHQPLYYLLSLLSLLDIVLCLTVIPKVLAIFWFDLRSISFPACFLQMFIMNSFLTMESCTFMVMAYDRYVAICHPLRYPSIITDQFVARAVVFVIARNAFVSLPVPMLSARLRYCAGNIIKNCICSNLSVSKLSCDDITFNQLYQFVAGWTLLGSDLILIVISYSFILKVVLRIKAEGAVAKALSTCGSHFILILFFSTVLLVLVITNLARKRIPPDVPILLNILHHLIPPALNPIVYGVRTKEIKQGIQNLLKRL
Excerpt: as §1
(§2) Activation of OR56A4 by acids of different chain length was further tested. […] Replacing the wild-type with the C-terminal sequence of the functional OR51 E1 did reduce activity. However, using the optimized sequence form Examples 1-5 led to a strong signal and much lower detection threshold upon addition of all three acids.

[4] = target: T3, OR56A4 (Homo sapiens, UniProt Q8NGH8, T299N); assay: cell-based; assay type: cell-based
T3 construct: expressed in transfected cells; host or cells: HEK293T stably expressing human RTP1S(V227I) and RTP2(L220R)
T3 sequence (Q8NGH8 with tags, fused parts or gaps T299N): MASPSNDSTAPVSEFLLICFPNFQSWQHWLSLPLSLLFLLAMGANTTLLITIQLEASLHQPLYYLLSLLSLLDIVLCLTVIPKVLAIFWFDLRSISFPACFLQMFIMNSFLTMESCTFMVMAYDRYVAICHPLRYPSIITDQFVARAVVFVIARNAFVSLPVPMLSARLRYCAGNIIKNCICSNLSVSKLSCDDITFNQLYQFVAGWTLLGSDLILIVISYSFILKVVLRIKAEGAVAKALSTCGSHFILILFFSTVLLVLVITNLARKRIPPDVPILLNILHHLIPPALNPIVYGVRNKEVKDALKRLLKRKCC
Excerpt: as §1, §2

[5] = tested on: OR56A4; assay: cell-based; assay type: cell-based, human
Excerpt: as §1, §2

[6] = target: T4, OR14J1 (Homo sapiens, UniProt Q9UGF5); assay: Activation of modified OR14J1 (SEQ ID NO: 221), library hit and dose-response; assay type: cell-based; conditions: SEQ ID 221
T4 construct: expressed in transfected cells; host or cells: HEK293T stably expressing human RTP1S(V227I) and RTP2(L220R) (general method)
T4 sequence (Q9UGF5 with tags, fused parts or gaps): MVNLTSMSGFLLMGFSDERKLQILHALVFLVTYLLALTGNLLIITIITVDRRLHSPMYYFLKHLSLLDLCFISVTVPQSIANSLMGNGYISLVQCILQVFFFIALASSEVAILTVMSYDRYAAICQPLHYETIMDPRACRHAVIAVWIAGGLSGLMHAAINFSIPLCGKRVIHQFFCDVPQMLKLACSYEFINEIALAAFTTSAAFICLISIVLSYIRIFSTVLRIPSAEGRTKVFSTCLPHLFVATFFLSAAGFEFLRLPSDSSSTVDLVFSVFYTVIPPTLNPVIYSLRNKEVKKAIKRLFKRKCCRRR
Method: Parallel transfection experiments were conducted with all these plasmids (n = 408) and cells expressing the different OR were stimulated with one given ligand at a time, tested at the maximal, clearly non-cytotoxic concentration. In total 26 different ligands were tested on the full library of class II receptors.
Table 16. Ligands tested on the full library of OR and cognate receptors identified for these ligands

[7] = target: T5, OR2T4 (Homo sapiens, UniProt Q8NH00, D328E/G331D/M330K); assay: cell-based; assay type: cell-based; conditions: OR2T4 with SEQ ID NO: 86
T5 construct: expressed in transfected cells; host or cells: HEK293T cells stably expressing human RTP1S (V227I) and RTP2 (L220R)
T5 sequence (Q8NH00 with tags, fused parts or gaps D328E/M330K/G331D): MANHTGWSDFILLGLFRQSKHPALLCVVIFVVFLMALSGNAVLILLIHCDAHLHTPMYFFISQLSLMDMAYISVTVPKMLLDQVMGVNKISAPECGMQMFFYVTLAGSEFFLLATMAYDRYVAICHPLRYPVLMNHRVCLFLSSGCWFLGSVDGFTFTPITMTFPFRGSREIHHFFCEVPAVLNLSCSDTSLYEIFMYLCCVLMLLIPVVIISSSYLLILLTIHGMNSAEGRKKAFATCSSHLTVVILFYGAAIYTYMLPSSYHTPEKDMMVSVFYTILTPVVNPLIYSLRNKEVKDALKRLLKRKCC
Excerpt: as §1

[8] = target: T6, OR2T11 (Homo sapiens, UniProt Q8NH01); assay: cell-based; assay type: cell-based
T6 construct: expressed in transfected cells; host or cells: HEK293T stably expressing human RTP1S(V227I) and RTP2(L220R)
Excerpt: as §1
T6 sequence (Q8NH01 whole entry): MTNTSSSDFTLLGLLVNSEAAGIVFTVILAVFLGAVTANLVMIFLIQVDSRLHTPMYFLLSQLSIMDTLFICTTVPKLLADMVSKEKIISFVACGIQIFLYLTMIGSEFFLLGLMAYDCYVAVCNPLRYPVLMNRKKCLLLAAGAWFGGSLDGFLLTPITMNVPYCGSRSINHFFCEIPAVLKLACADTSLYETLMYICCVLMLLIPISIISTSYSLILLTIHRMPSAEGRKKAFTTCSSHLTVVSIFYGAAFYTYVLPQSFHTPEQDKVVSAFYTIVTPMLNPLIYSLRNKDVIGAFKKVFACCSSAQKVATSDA

[9] = target: T7, OR2T11 (Homo sapiens, UniProt Q8NH01); assay: cell-based; assay type: cell-based; remark: listed apart in the source
T7 construct: expressed in transfected cells; host or cells: HEK293T stably expressing human RTP1S(V227I) and RTP2(L220R)
Excerpt: as §1
T7 sequence (Q8NH01 with tags, fused parts or gaps): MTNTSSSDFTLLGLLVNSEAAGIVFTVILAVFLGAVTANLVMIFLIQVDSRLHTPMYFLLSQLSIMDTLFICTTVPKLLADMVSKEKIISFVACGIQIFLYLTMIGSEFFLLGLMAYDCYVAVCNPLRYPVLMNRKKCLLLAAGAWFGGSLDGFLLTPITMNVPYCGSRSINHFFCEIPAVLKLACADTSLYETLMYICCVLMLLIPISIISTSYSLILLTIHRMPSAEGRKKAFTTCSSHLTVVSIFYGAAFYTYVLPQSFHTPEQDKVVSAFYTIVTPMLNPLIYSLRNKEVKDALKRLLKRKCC

[10] = tested on: OR2T11; assay: cell-based; assay type: cell-based, human
Excerpt: as §1

[11] = target: T8, OR1C1 (Homo sapiens, UniProt Q15619); assay: cell-based; assay type: cell-based
T8 construct: expressed in transfected cells; host or cells: HEK293T cells stably expressing human RTP1S (V227I) and RTP2 (L220R)
Excerpt: as §1
T8 sequence (Q15619 with tags, fused parts or gaps): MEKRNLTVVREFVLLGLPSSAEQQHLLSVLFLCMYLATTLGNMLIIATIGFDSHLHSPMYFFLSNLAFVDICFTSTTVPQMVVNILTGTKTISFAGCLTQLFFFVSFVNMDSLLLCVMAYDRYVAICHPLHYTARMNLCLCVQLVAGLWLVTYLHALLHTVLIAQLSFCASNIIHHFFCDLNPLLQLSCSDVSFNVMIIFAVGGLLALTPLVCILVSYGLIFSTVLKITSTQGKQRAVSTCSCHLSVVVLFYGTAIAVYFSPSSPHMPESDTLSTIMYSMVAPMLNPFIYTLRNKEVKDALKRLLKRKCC

[12] = target: T9, OR1C1 (Homo sapiens, UniProt Q15619); assay: cell-based; assay type: cell-based; remark: listed apart in the source
T9 construct: expressed in transfected cells; host or cells: HEK293T cells stably expressing human RTP1S (V227I) and RTP2 (L220R)
Excerpt: as §1
T9 sequence (Q15619 whole entry): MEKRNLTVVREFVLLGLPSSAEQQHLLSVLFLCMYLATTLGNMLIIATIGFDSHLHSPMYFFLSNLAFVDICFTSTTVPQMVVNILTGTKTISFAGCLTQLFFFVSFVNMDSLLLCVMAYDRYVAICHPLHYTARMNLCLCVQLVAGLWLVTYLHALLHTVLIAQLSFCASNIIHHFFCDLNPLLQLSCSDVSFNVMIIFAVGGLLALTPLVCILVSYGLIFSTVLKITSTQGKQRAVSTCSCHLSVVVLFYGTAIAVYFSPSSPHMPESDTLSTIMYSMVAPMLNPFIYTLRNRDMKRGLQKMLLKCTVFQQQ

[13] = tested on: OR1C1; assay: cell-based; assay type: cell-based, human
Excerpt: as §1

[14] = target: T10, OR10H5 (Homo sapiens, UniProt Q8NGA6); assay: Luciferase dose-response, wild-type vs changed C-terminus (SEQ ID NO: 86); assay type: cell-based; conditions: wild-type
T10 construct: expressed in transfected cells; host or cells: HEK293T cells stably expressing human RTP1S (V227I) and RTP2 (L220R)
Excerpt: as §1
T10 sequence (Q8NGA6 whole entry): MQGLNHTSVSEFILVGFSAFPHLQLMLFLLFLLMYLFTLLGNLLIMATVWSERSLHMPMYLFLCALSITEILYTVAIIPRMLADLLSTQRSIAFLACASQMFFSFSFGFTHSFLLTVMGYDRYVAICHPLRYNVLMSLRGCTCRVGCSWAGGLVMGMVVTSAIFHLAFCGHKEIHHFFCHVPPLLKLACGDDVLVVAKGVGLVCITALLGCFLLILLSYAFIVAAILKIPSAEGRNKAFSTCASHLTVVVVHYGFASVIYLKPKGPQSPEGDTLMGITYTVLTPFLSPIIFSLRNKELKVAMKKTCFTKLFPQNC

[15] = target: T11, OR10H5 (Homo sapiens, UniProt Q8NGA6); assay: as above; assay type: cell-based
T11 construct: expressed in transfected cells; host or cells: HEK293T cells stably expressing human RTP1S (V227I) and RTP2 (L220R)
Excerpt: as §1
T11 sequence (Q8NGA6 with tags, fused parts or gaps): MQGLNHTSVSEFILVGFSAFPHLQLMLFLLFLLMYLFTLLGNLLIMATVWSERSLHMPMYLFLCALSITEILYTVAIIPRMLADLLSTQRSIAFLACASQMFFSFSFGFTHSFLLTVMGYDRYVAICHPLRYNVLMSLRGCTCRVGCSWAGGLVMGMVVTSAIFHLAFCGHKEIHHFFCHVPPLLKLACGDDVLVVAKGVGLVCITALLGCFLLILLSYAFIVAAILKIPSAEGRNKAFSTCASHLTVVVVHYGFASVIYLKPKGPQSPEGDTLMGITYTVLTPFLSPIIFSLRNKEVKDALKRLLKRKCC

[16] = tested on: OR10H5; assay: as above; assay type: cell-based, human
Excerpt: as §1

[17] = wild-type, read-out: Potency EC50
[18] = changed C-term SEQ ID NO: 86, read-out: Potency EC50

## CCCC(C)(O)CC(=O)O (centres unmarked) [3-Methyl-3-Hydroxy-Hexanoic acid]
[1]; changed C-term SEQ ID NO: 86
  EC50: 69 µM
[1]; wild-type
  EC50: > 316 µM
[2]
  Comments on efficacy: No induction wild-type
  Fold-improvement potency: >>5
  Fold-improvement threshold: >>5

## CCCCCCCCCCC(=O)O [Undecanoic acid]
[3]
  Detection threshold; concentration for 2-fold induction: 43 µM
[3]; wild-type
  activation of wild-type OR56A4: activated at high concentration
[3]; [17]
  EC50: 114 µM
[4]
  Detection threshold; concentration for 2-fold induction: 3.2 µM
[4]; [18]
  EC50: 22 µM
[5]
  Fold-improvement potency: 5.1
  Fold-improvement threshold: 13.5

## C[C@H]1CCC2(O)C(C)(C)C3CCC2(C)C1C3 (stereo partly drawn) [Patchoulol, (4S)-4,8a,9,9-tetramethyloctahydro-1,6-methanonaphthalen-1(2H)-ol]
[6]
  activation of OR14J1: activate OR14J1; also recorded: strong induction

## C=CCSSCC=C [Diallyl disulfide]
[7]
  ligands identified in screening of sulfur odorants: good ligands
[8]; Potency EC50, wild-type
  EC50: > 200 µM
[8]; wild-type
  Detection threshold; concentration for 2-fold induction: >200 µM
[9]; Potency EC50, changed C-term SEQ ID NO: 86
  EC50: 6.51 µM
[9]; changed C-term. SEQ ID NO: 86
  Detection threshold; concentration for 2-fold induction: 2.03 µM
[10]
  Comments on efficacy: No induction wild-type
  Fold-improvement potency: >>40
  Fold-improvement threshold: >100

## C=CC(C)(O)CCC=C(C)C (centres unmarked) [Linalool]
[11]
  Detection threshold; concentration for 2-fold induction: 16.2 µM
[11]; [18]
  EC50: 202 µM
[12]
  Detection threshold; concentration for 2-fold induction: 34.7 µM
[12]; [17]
  EC50: 379 µM
[13]
  Fold-improvement potency: 1.9
  Fold-improvement threshold: 2.1

## CC(C)(O)[Si](C1CC1)(C1CC1)C1CC1 [2-(tricyclopropylsilyl)propan-2-ol]
[6]
  activation of OR14J1: activate OR14J1

## Cc1ccc2c(c1)OCC(=O)CO2 [Calone]
[14]
  Detection threshold; concentration for 2-fold induction: 60.1 µM
[14]; read-out: Potency EC50
  EC50: 41 µM
[15]; [18]
  EC50: 60 µM
[15]; changed C-term. SEQ ID NO: 86
  Detection threshold; concentration for 2-fold induction: 24.3 µM
[16]
  Comments on efficacy: 3-fold lower maximal induction for wild-type
  Fold-improvement threshold: 2.5
[16]; higher EC50 due to much higher efficacy of optimized C-terminus
  Fold-improvement potency: 0.7 *
